From a melting point compilation (Tetko et al.; mined from patent text by program, amines drawn as free bases though some values may be those of a salt) come the findings set out here.

The melting point is the temperature of the solid-liquid transition.

For `Nc1cccc(CSCCNC(=O)c2c(Cl)cccc2Cl)c1`, the melting point lay within 55 to 56 °C.

On to `O=Cc1ccc(OCc2ccccc2)c2[nH]c(C(=O)O)cc12`, for which the melting point stood at 207 °C.

As for `O=C(Cl)c1sc2ccc(OCc3ccccc3)cc2c1Cl`, the melting point is 139 to 142 °C.

`CC(N)=CC(=O)c1ccc(Cl)cc1` showed a melting point of 126 to 130 °C.

`C=Cc1ccc2c(c1)CC(CNC(=O)OC(C)(C)C)CC2` (stereo not given) displayed a melting point of 98 to 100 °C.

As for `CC(Cn1ccc(C(F)(F)F)n1)n1nnc2cc3c(=O)n(C(C)Cn4ncnn4)nnc3cc2c1=O` (stereo not given), the melting point is 95 to 97 °C.

`CCCCCCC1(c2ccccc2)CC(O)=CC(=O)O1` (stereo not given): the melting point was in the range of 119 to 120 °C.

In the case of `O=C1CCNC(=O)C1C(=O)c1ccccc1` (stereo not given), the melting point lay in the range of 164 to 165 °C.

In turn, `CNS(=O)(=O)c1ccccc1Nc1nc(Nc2ccc3c(c2)CCCC(=O)N3CC(=O)N2CCN(C)CC2)ncc1Cl` came in with a melting point of 148 to 151 °C.

In the case of `CC1Nc2cc(N(C)C(=O)c3ccc(-c4ccccc4)cc3)ccc2N1C` (stereo not given), the melting point was in the range of 213 to 214 °C.

Compound `O=S(=O)(c1cccc(-c2cc(-c3nc(-c4ccc(C(F)(F)F)cc4)cc(C(F)(F)F)n3)ccn2)c1)N1CCC(O)C1` (racemic) registered a melting point of 234 °C.

Compound `COC(=O)CSCC1Cn2cc(C(=O)NCc3ccc(Cl)cc3)c(=O)c3cc(CN4CCOCC4)cc(c32)O1` (stereo not given) came in with a melting point of 182 to 183 °C.

For `O=C(O)C(=O)CC(=O)c1cc(CCc2ccccc2)cn1Cc1ccc(F)cc1`, the melting point lay in the range of 135 to 137 °C.

Turning to `O=C(OCc1ccccc1)C(C(=O)OCc1ccccc1)n1cccc1`, the melting point lay in the range of 48.5 to 49 °C.

Compound `CNC(=NCCS(=O)Cc1[nH]cnc1C)NC#N` (stereo not given) showed a melting point of 185 to 186 °C.

On to `CCc1coc(Cc2ccc(NC(=O)/C=C/c3cnn(C)c3-c3ccc(F)cc3)cc2)n1`, for which the melting point lay within 174 to 175 °C.

`COC(=O)CNC(=O)c1ccc(NS(=O)(=O)c2ccc(F)cc2)cn1` registered a melting point of 146 to 148 °C.

For the compound `CN1CCC(=C(c2ccc(F)cc2)c2cccnc2)CC1`, the melting point amounted to 93.1 °C.

For `CSc1ccc2cc(Cc3ccccc3)cc(CCNC(C)=O)c2c1`, the melting point is 126 to 128 °C.

The compound `Clc1ccc([C@@]2(Cn3ccnc3)OC[C@H](COc3ccc4c(c3)CCN(Cc3ccc(-c5ccccc5)cc3)C4)O2)c(Cl)c1` (racemic) gave a melting point of 103 to 105 °C.

On to `CCOc1cc(Oc2cc(C)[nH]n2)ccc1[N+](=O)[O-]`, for which the melting point was in the range of 123 to 124 °C.

The compound `O=C(c1cc(-c2ccccc2)c(=O)n2c1-c1sccc1C2)N1CCOCC1` showed a melting point of 225 to 227 °C.

As for `O=[N+]([O-])c1ccc(Sc2ccccc2)cc1OCc1ccccc1`, the melting point was 77 to 79 °C.

As for `CCCc1cc(C(=O)O)ccc1OCCCCCCc1cccc(OC)c1OC`, the melting point is 107 to 108 °C.

In turn, `Cc1c(CO)cccc1NC(=O)CC12CC3CC(CC(C3)C1)C2` gave a melting point of 205 to 206 °C.

In turn, `CCCCCCCCCCCCCCOc1ccc(CNc2ccc(CO)cc2)cc1` showed a melting point of 85 to 87 °C.

`CCCNS(=O)(=O)c1cccc(C)c1C#N` returned a melting point of 74 to 77 °C.

Turning to `CCCCc1nc(C=O)c(Br)[nH]1`, the melting point came out at 113 °C.

`Cc1c(C)c(N2CCN(c3ccc(S(C)(=O)=O)cc3)CC2)c(C)c2c1OC(C)C2` (stereo not given): the melting point fell in the range of 228 to 233 °C.

`CC(C)(C#N)c1cc(Cn2cncn2)cc(C(C)(C)C(N)=O)c1` yielded a melting point of 51 to 53 °C.

As to `CO[C@@H]1CNCC[C@@H]1NC(=O)c1cc(Cl)c(N)c2c1OC(C)(C)C2` (relative stereo), the melting point was 179 °C.

`Cc1c2ccccc2c(-c2ccc(O)cc2)c2c1sc1ccccc12` yielded a melting point of 184 to 185 °C.

Regarding `COc1ccc(/C=C/CCCCO)cc1`, the melting point amounted to 66 °C.

`COC(=O)C1=NC2=COc3cc(C)ccc3N2C1C(=O)O` (stereo not given) gave a melting point of 176 to 177 °C.

`[O-][N+]1=C(c2ccccc2F)c2cc(Cl)ccc2N=C(C2CCCN2C=NO)C1` (stereo not given) displayed a melting point of 168 to 172 °C.

`O=C1NC(=O)C(c2ccc(Cl)o2)O1` (stereo not given) showed a melting point of 112 to 114 °C.

Consider `CC(C)n1nc(-c2sc(C(N)=O)nc2-c2ccc(F)cc2)ccc1=O`, for which the melting point is 226 to 228 °C.

With `COc1cc2c(cc1OC)C(c1cccc(C(F)(F)F)c1)=NN=C(C)C2`, the melting point was in the range of 134 to 135 °C.

As for `CC1=NN=C(c2ccc([N+](=O)[O-])cc2)c2cc3c(cc2C1)OCCOC3`, the melting point fell in the range of 204 to 206 °C.

The compound `COC(=O)CCC(=O)c1ccc(CCCCNC(C)=O)cc1` displayed a melting point of 94 to 95 °C.

The compound `CCc1cccc2c(C(CO)NC=O)c[nH]c12` (stereo not given) had a melting point of 195 to 197 °C.

`Cc1ncc2n1-c1ccc(Br)cc1C(c1ccccn1)=NC2` came in with a melting point of 189 to 190 °C.

`O=[N+]([O-])c1cc(F)ccc1NC1CCCCC1` returned a melting point of 93 °C.

For `COc1cccc(CBr)c1CBr`, the melting point lay in the range of 78 to 79 °C.

The compound `CC(=O)NC[C@H]1CN(c2ccc(C3CCOCC3)cc2)C(=O)O1` came in with a melting point of 185 to 187 °C.

`O=c1[nH]c(=O)n(CCCCBr)c2ccccc12` gave a melting point of 152 to 153 °C.

`c1ccc(C(N=C2NCCN2)c2ccccc2)cc1`: the melting point lay in the range of 189 to 190 °C.

For `Cn1nccc1COC(=O)Cc1ccccc1`, the melting point fell in the range of 80 to 83 °C.

For `Cc1c(C(=O)Nc2cc(Cl)c(N3CCC(N4CCOCC4)CC3)c(Cl)c2)cnn1-c1ccc(C(F)(F)F)cc1`, the melting point was in the range of 252 to 254 °C.

`COC(=O)c1c(Nc2ccccc2)nn(C(C)=O)c1C`: the melting point was in the range of 115 to 116 °C.

As to `CC(C)(C)OC(=O)[C@H]1C[C@H](S(=O)(=O)c2ccccc2)[C@@H](c2ccccc2)N1C(=O)CNC(=O)Nc1cccc(C(=O)O)c1` (racemic), the melting point was 213 °C.

On to `COC(=O)c1ccc(Oc2cc(-n3nc(C)n(C(F)F)c3=O)c(F)cc2Cl)cc1`, for which the melting point is 97 to 98 °C.

Consider `CN(C)CCN1C(=O)c2ccc3[nH]c4ccc(O)cc4c3c2C1=O`, for which the melting point is more than 260 °C.

Take `CCOc1ccc(C2=NC[C@@H](O)[C@H](c3ccccc3)O2)cc1` (racemic): the melting point amounted to 124 °C.

On to `O=c1c2cccnc2c(-c2cccc(Cl)c2)cn1Cc1cccs1`, for which the melting point fell in the range of 142 to 145 °C.

Compound `CCCN(CCC)C(=O)C1CSc2ccc(N)cc21` (stereo not given) came in with a melting point of 100 °C.

Turning to `CC1CC2C(=C(Cl)C=CC2(F)n2[nH]c3c(c2=O)CCCC3)O1` (stereo not given), the melting point lay within 240 to 242 °C.

The compound `CCOC(=O)c1nnnn1Cc1ccccc1` returned a melting point of 58 to 61 °C.

As for `Oc1cc(O)cc(CN/C=C2\CN=Cc3ccc(Br)cc32)c1`, the melting point is 263 to 264 °C.

In turn, `CCOC(=O)C1=C(c2ccccc2)N(c2ccccc2)C(=O)C1C(=O)c1ccccc1` (stereo not given) yielded a melting point of 137 to 139 °C.

`O=C(c1ccc(F)cn1)N1CCC[C@H](c2noc(-c3ccc(F)cc3)n2)C1` had a melting point of 93 to 95 °C.

Compound `COc1c(Br)c(CO)c(OC)c2ccccc12` showed a melting point of 115 to 117 °C.

As to `COC(=O)c1cnnc2c(C)cccc12`, the melting point was 90 to 91 °C.

`OCc1csc(N(c2ccccc2)c2ccccc2)n1` displayed a melting point of 136 to 138 °C.

In the case of `CCN(CC)CCNC(=O)c1ccc2cc(I)ccc2c1`, the melting point lay within 105 to 107 °C.

For the compound `O=C(c1c(F)cccc1F)N1CSCN(c2ccc(Cl)cc2)C1=O`, the melting point was in the range of 128 to 130 °C.

As for `NC(CC(=O)O)c1ccc(Br)cc1` (stereo not given), the melting point was found to be 234 °C.

Compound `CC(=S)NC[C@H]1CN(c2ccc3c(c2)C[C@@H](C)N3C(=O)CO)C(=O)O1` had a melting point of 115 to 117 °C.

`COc1cc(C(=O)NC(C)(C)C)ccc1S(=O)(=O)Cl` registered a melting point of 145 to 149 °C.

`CCOC(=O)Cc1ccc(NC(=O)C(Cn2ccnc2)NS(=O)(=O)c2ccc(F)cc2)cc1` (racemic) registered a melting point of 155 to 157 °C.

In the case of `COc1cccc([C@H]2O[C@H](CC(N)=O)C(=O)N(CC(C)(C)C)c3ccc(Cl)cc32)c1OC`, the melting point lay in the range of 170 to 172 °C.

Regarding `CC1=Cc2cc(F)c(F)cc2C1`, the melting point lay in the range of 86 to 90 °C.

In the case of `COc1cccc(Oc2cc(-c3ccc(C(F)(F)F)cc3)ccn2)c1`, the melting point was 77.5 to 79.6 °C.

Compound `CCCCCCCCCCCCOc1cc(O)c(C(=O)c2ccccc2)cc1Cl` yielded a melting point of 75 to 77 °C.

On to `CCC12CCC(=O)C=C1CCC2=O` (single isomer, unassigned; (+)), for which the melting point fell in the range of 56 to 58.5 °C.

As for `COC(=O)CC(NCCCN(C)C)C(=O)O` (stereo not given), the melting point lay in the range of 171 to 172 °C.

With `CCOC(=O)c1cnc2n(c1=O)C(C)CCC2=NNC(=O)c1ccccc1` (stereo not given), the melting point was 209 to 210 °C.

In turn, `CCCc1c(C(=O)O)c(=O)cc(-c2ccccc2)n1C` had a melting point of 150 °C.

`O=S(=O)(c1c(-c2cc(Cl)cc(Cl)c2)[nH]c2c(Cl)cc(Cl)cc12)C(F)(F)F` showed a melting point of 300 to 302 °C.

Turning to `O=C(CC(=O)Nc1ccc2c(c1)NC(=O)C2)Nc1ccc(F)cc1`, the melting point is 221 °C.

`CCC(C)N1C(=O)c2ccccc2Oc2ncccc21` (stereo not given) registered a melting point of 137 to 138 °C.

`COC(=O)C1C(=O)Nc2ccc(C(F)(F)F)cc2CC1c1ccc(OC)cc1` (stereo not given) gave a melting point of 161 to 163 °C.

In turn, `O=C(N=c1sc2cc(OC(F)(F)F)ccc2n1CCCO)C(F)(F)F` returned a melting point of 144 °C.

For the compound `COc1cc2nc(C(C)(C)C)sc2cc1NC(=S)SCCC(=O)O`, the melting point was in the range of 154 to 156 °C.

In turn, `COC(=O)[C@@H]1CCCN1C(=O)Nc1cc(Cl)cc(Cl)c1` returned a melting point of 110 to 112 °C.

In turn, `CCOC(=O)c1ccccc1OC` displayed a melting point of 75 to 76 °C.

For the compound `COc1cc(CCC(=O)O)ccc1OCCCc1cn(-c2ccc(C(F)(F)F)cn2)nc1C(C)C`, the melting point lay in the range of 118 to 119 °C.

Regarding `Nc1cc(Oc2ccc(Oc3cc(N)cc(C(F)(F)F)c3)cc2)cc(C(F)(F)F)c1`, the melting point lay within 157 to 158 °C.

For the compound `CCOC(=O)/C=C/c1ccc(OCC(C)(C)O)cc1Oc1ncc(C(F)(F)F)cc1Cl`, the melting point was 79 to 83 °C.

The compound `N#Cc1nc2ccc(Oc3ccc(C(F)(F)F)cc3Cl)cc2[nH]1` returned a melting point of 192 °C.
